Experimental data: patent publication US20230295157A1, “3-(1H-IMIDAZOL-2-YL)-2,3,8,8A-TETRAHYDROINDOLIZIN-5(1H)-ONE DERIVATIVES USEFUL AS FACTOR XIA INHIBITORS” (JANSSEN PHARMACEUTICA NV, priority 2020, published 2023)

Experiments:
Factor XIa = Factor XIa (Homo sapiens (Human), UniProt P03951); experiment: Factor XIa inhibition assay (FLINT) utilizing a fluorophore-quencher pair peptide substrate; format: biochemical; conditions: 30 min preincubation, kinetic reads over 30 min, 5Fam-KLTRAETV-K5Tamra substrate 15 μM; read-out: FXIa Kin Inh IC50
From the text: Biological Example 1: Factor XIa Inhibition Assay Utilizing a Fluorophore-Quencher Pair Peptide Substrate
A fluorescence intensity (FLINT) based assay was used to monitor inhibition of Factor XIa. The peptide substrate, 5Fam-[…]-K5Tamra (purchased from New England Peptide) was chosen based on the FXI sequence. Conversion of zymogen […]. The custom peptide used in this assay was based on the Arg146 cleavage site of FXI. The peptide substrate was designed with a fluorophore-quencher pair, where the fluorescence is quenched until FXIa cleaves the 8-mer peptide after the Arg residue.
The Factor XIa FLINT assay was used with the following 5Fam-[…]-K5Tamra assay buffer: 50 mM Tris, pH 7.5, 100 mM NaCl, 5 mM CaCl2), 0.1 mg/mL BSA, 0.03% CHAPS. Assay buffer was prepared by mixing all ingredients fresh. 5Fam-[…]-K5Tamra peptide substrate was first prepared at 10 mM in 100% DMSO, then diluted to 3 mM in 100% DMSO. Assay buffer was then added directly to the 3 mM stock of substrate to prepare the 30 μM 2× working concentration (15 μM final concentration). The 2×Factor XIa stock solution was prepared by diluting 6.562 μM stock in 1×assay buffer for a 200 μM working stock solution (100 μM final concentration).
Test compound(s) were run in an 11-point, 3-fold serial dilution with a final top compound concentration of 100 nM. Final DMSO in assay was 2%. FXIa was preincubated with compound for 30-minutes and then substrate was added to initiate the reaction. The assay was run with kinetic (KIN) reads at 5 min intervals over 30 minutes. The time course was linear using 100 μM FXIa greater than 30 minutes. More specifically, the assay was run as follows: • 100 nL of 0.01 mM test compound was dispensed into black 384 well non-binding Greiner BioOne 784900 plate for 0.1 μM final concentration; • 5 μL of 1×assay buffer was dispensed to column 24 (low control) and 5 μL 2×Factor XIa solution was dispensed to columns 1-23 (column 23 high control); • the plate was centrifuged with a “cover” plate at 500 rpm for 1 min • the plate was pre-incubated for 30 minutes at room temperature with plate covered; • 5 μL of 2×5Fam-[…]-K5Tamra peptide substrate was dispensed into the entire plate, columns 1-24; • the plate was centrifuged with a “cover” plate at 500 rpm for 1 min; • the plate was read monitoring fluorescence intensity on the BMG PHERAStar at room temperature, using fluorescence module 485 nm/520 nm.
(§1) Percent inhibition (IC50) curves were generated per compound tested, and data was analyzed using a 4-parameter logistic fit using GeneData Screener. The relative fluorescence unit (RFU) values were normalized to percent inhibition using the following equation:
% inhibition=((HC-LC)−(compound−LC)/(HC-LC))*100
where LC—low control=mean signal of no Factor XIa or 100% inhibition of Factor XIa; HC—high control=mean signal of Factor XIa+5Fam-[…]-K5Tamra peptide substrate with DMSO only.
(§2) An 11-point dose response curve for the test compound(s) was generated using GENDATA to determine IC50 value based on the following equation:
Y=Bottom+(Top-Bottom)/(1+10^((logIC50-X)*HillSlope))
where Y is the % inhibition in the presence of X inhibitor concentration, Top=high control=mean signal of Factor XIa+5Fam-[…] K5Tamra peptide substrate with DMSO only; Bottom=low control−mean signal of no Factor XIa or 100% inhibition of Factor XIa; HillSlope—Hill coefficient; and IC50=concentration of compound with 50% inhibition in relation to top/high control.
Representative compounds of the present invention were tested according to the procedure described in Biological Example 1 and Biological Example 2 above, with results as listed in Table 3, below.

human plasma kallikrein = human plasma kallikrein (Homo sapiens (Human), UniProt P03952); experiment: Kallikrein inhibition assay (FLINT) utilizing a quenched AMC peptide substrate; format: biochemical; conditions: 30 min preincubation, kinetic reads over 30 min, Z-Gly-Pro-Arg-AMC substrate 50 μM; read-out: Kallikrein Kin Inh IC50
Experimental: Biological Example 2: Kallikrein Inhibition Assay Utilizing a Quenched AMC Peptide Substrate A fluorescence intensity (FLINT) based assay was used to monitor inhibition of human plasma kallikrein.
The Kallikrein FLINT assay was used with the following Z-Gly-Pro-Arg-AMC assay buffer: 50 mM Tris, pH 7.5, 100 mM NaCl, 5 mM CaCl2), 0.1 mg/mL BSA, 0.03% CHAPS. Assay buffer was prepared by mixing all ingredients fresh. 2×Z-Gly-Pro-Arg-AMC peptide substrate was prepared by diluting 10 mM stock into 1×assay buffer for a 100 μM working concentration (50 μM final concentration). The 2×kallikrein stock solution was prepared by diluting 14.76 μM stock in 1×assay buffer for a 4 nM working stock solution (2 nM final concentration).
Test compound(s) were run in an 11-point, 3-fold serial dilution with a final top compound concentration of 1 μM. Final DMSO in assay was 2%. Plasma kallikrein was pre-incubated for 30-minute with compound and then 50 μM substrate was added to initiate the reaction. The assay was run with kinetic (KIN) reads at 5 min intervals over 30 minutes. […] More specifically, the assay was run as follows: • 100 nL of 0.1 mM test compound was dispensed into black 384-well non-binding Greiner BioOne 784900 plate for 1 μM final concentration; • 5 μL of 1×assay buffer was dispensed to columns 24 (low control) and 5 μL 2×human kallikrein enzyme solution was dispensed to columns 1-23 (column 23 high control); • the plate was centrifuged with a “cover” plate at 500 rpm for 1 min • the plate was pre-incubated for 30 minutes at room temperature with plate covered; • 5 μL of 2×Z-Gly-Pro-Arg-AMC peptide substrate was dispensed into the entire plate, columns 1-24; • the plate was centrifuged with a “cover” plate at 500 rpm for 1 min; • the plate was read monitoring fluorescence intensity on the BMG PHERAStar at room temperature, using fluorescence module 340 nm/440 nm.
as §1
% inhibition=((HC-LC)−(compound-LC)\(HC-LC))*100 where LC—low control=mean signal of human kallikrein enzyme or 100% inhibition of human kallikrein enzyme; HC—high control=mean signal of Factor XIa+Z-Gly-Pro-Arg-AMC peptide substrate with DMSO only.
as §2
Y=Bottom+(Top-Bottom)/(1+10^((logIC50−X)*HillSlope)) where Y is the % inhibition in the presence of X inhibitor concentration, Top=high control=mean signal of human kallikrein enzyme+Z-Gly-Pro-Arg-AMC peptide substrate with DMSO only; Bottom=low control−mean signal of no human kallikrein enzyme or 100% inhibition of human kallikrein enzyme; HillSlope—Hill coefficient; and IC50=concentration of compound with 50% inhibition in relation to top/high control.

Chain of Factor XIa (P03951 388-625): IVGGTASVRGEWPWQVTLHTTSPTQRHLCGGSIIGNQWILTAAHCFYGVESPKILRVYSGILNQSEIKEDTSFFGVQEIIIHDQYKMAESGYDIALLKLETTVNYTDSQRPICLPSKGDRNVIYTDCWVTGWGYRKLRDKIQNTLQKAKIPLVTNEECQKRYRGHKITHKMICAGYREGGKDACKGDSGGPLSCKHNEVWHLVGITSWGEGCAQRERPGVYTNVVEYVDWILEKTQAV
Chain of Factor XIa (P03951 19-387 partner): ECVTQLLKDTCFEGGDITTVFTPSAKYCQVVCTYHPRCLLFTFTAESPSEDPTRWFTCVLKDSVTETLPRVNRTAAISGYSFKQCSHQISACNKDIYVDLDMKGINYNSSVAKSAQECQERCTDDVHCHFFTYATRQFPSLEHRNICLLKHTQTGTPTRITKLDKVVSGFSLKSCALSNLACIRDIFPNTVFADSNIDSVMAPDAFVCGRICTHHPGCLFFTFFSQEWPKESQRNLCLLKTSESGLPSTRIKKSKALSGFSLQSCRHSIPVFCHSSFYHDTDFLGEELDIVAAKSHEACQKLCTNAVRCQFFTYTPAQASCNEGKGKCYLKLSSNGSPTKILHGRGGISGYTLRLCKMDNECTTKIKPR
Chain of human plasma kallikrein (P03952 391-638): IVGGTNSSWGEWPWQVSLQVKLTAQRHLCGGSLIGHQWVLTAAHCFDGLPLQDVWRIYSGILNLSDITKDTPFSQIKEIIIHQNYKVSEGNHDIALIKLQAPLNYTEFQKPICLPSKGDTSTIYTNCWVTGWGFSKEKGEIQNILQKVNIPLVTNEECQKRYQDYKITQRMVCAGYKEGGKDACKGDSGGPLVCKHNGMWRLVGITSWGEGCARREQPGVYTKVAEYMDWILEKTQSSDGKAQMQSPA
Chain of human plasma kallikrein (P03952 20-390 partner): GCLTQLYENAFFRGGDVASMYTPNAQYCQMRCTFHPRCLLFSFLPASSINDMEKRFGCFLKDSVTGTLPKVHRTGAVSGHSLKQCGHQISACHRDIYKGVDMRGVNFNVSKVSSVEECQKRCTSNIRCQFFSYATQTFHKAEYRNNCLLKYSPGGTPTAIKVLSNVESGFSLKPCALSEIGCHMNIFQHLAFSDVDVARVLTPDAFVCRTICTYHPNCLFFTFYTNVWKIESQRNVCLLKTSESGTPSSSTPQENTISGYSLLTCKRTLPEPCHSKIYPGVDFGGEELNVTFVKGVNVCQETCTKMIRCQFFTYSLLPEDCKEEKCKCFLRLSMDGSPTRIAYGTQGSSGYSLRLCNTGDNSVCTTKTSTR

Compound	IC50 (Factor XIa)	IC50 (human plasma kallikrein)
O=C1C=C(c2c(-n3cnnn3)ccc(Cl)c2F)C[C@H]2CC[C@@H](c3ncc(-c4ccc(CO)nc4Cl)[nH]3)N12 [Example 236, (3S,8aR)-7-(3-Chloro-2-fluoro-6-(1H-tetrazol-1-yl)phenyl)-3-(5-(2-chloro-6-(hydroxymethyl)pyridin-3-yl)-1H-imidazol-2-yl)-2,3,8,8a-tetrahydroindolizin-5(1H)-one]	0.0053 µM	0.0216 µM
Nc1cc(-c2[nH]c([C@@H]3CC[C@@H]4CC(c5c(-n6cnnn6)ccc(Cl)c5F)=CC(=O)N43)nc2F)c(Cl)cn1 [Example 1, (3S,8aR)-3-[5-(2-Amino-5-chloro-4-pyridyl)-4-fluoro-1H-imidazol-2-yl]-7-[3-chloro-2-fluoro-6-(tetrazol-1-yl)phenyl]-2,3,8,8a-tetrahydro-1H-indolizin-5-one]	0.0126 µM	0.0679 µM
NC(=O)c1cc(-c2cnc([C@@H]3CC[C@H]4CC(c5c(-n6cnnn6)ccc(Cl)c5F)=CC(=O)N43)[nH]2)ccc1F [Example 232, 5-(2-((3S,8aS)-7-(3-Chloro-2-fluoro-6-(1H-tetrazol-1-yl)phenyl)-5-oxo-1,2,3,5,8,8a-hexahydroindolizin-3-yl)-1H-imidazol-5-yl)-2-fluorobenzamide]	> 0.1 µM	0.0178 µM
O=C1C=C(c2c(-n3cnnn3)ccc(Cl)c2F)C[C@H]2CC[C@@H](c3ncc(-c4ccnc(C(F)(F)F)c4)[nH]3)N12 [Example 351, (3S,8aR)-7-(3-Chloro-2-fluoro-6-(1H-tetrazol-1-yl)phenyl)-3-(5-(2-(trifluoromethyl)pyridin-4-yl)-1H-imidazol-2-yl)-2,3,8,8a-tetrahydroindolizin-5(1H)-one]	0.0027 µM	0.0078 µM
COC(=O)c1nccc(-c2cnc([C@@H]3CC[C@@H]4CC(c5c(-n6cc(Cl)nn6)ccc(Cl)c5F)=CC(=O)N43)[nH]2)c1F [Example 50]	0.0198 µM	0.0316 µM
Nc1noc2ccc(-c3cnc([C@@H]4CC[C@@H]5CC(c6c(-n7cnnn7)ccc(Cl)c6F)=CC(=O)N54)[nH]3)cc12 [Example 201, (3S,8aR)-3-(5-(3-aminobenzo[d]isoxazol-5-yl)-1H-imidazol-2-yl)-7-(3-chloro-2-fluoro-6-(1H-tetrazol-1-yl)phenyl)-2,3,8,8a-tetrahydroindolizin-5(1H)-one]	0.0091 µM	0.0069 µM
CC1(O)CCc2c(-c3cnc(C4CCC5CC(c6c(-n7cnnn7)ccc(Cl)c6F)=CC(=O)N54)[nH]3)ccnc21 (stereo not shown) [Example 95, 7-(3-Chloro-2-fluoro-6-(1H-tetrazol-1-yl)phenyl)-3-(5-(7-hydroxy-7-methyl-6,7-dihydro-5H-cyclopenta[b]pyridin-4-yl)-1H-imidazol-2-yl)-2,3,8,8a-tetrahydroindolizin-5(1H)-one]	0.0035 µM	0.0239 µM
NC(=O)c1ccc(-c2cnc([C@H]3CC[C@@H]4CC(c5c(-n6cnnn6)ccc(Cl)c5F)=CC(=O)N43)[nH]2)cn1 (single isomer, unassigned) [Example 226]	0.0102 µM	0.0384 µM
CCOC(=O)Nc1ncccc1-c1c[nH]c([C@@H]2CC[C@H]3CC(c4c(-n5cnnn5)ccc(Cl)c4F)=CC(=O)N32)n1 [Example 262, Ethyl N-[3-[2-[(3S,8aS)-7-[3-chloro-2-fluoro-6-(tetrazol-1-yl)phenyl]-5-oxo-2,3,8,8a-tetrahydro-1H-indolizin-3-yl]-1H-imidazol-4-yl]-2-pyridyl]carbamate]	0.0458 µM	0.15 µM
O=C(O)c1nccc(-c2[nH]c([C@@H]3CC[C@@H]4CC(c5c(-n6cc(C(F)(F)F)nn6)ccc(Cl)c5F)=CC(=O)N43)nc2F)c1F [Example 34, 4-(2-((3S,8aR)-7-(3-Chloro-2-fluoro-6-(4-(trifluoromethyl)-1H-1,2,3-triazol-1-yl)phenyl)-5-oxo-1,2,3,5,8,8a-hexahydroindolizin-3-yl)-4-fluoro-1H-imidazol-5-yl)-3-fluoropicolinic acid]	0.0006 µM	0.0328 µM
COc1cc2[nH]cc(-c3cnc([C@@H]4CC[C@@H]5CC(c6c(-n7cnnn7)ccc(Cl)c6F)=CC(=O)N54)[nH]3)c2cn1 [Example 388, (3S,8aR)-7-(3-chloro-2-fluoro-6-(1H-tetrazol-1-yl)phenyl)-3-(5-(6-methoxy-1H-pyrrolo[3,2-c]pyridin-3-yl)-1H-imidazol-2-yl)-2,3,8,8a-tetrahydroindolizin-5(1H)-one]	0.0005 µM	0.0019 µM
COc1ccc(NC(=O)C2CC2)c(-c2c[nH]c([C@@H]3CC[C@H]4CC(c5c(-n6cnnn6)ccc(Cl)c5F)=CC(=O)N43)n2)c1 [Example 271, N-(2-(2-((3S,8aS)-7-(3-Chloro-2-fluoro-6-(1H-tetrazol-1-yl)phenyl)-5-oxo-1,2,3,5,8,8a-hexahydroindolizin-3-yl)-1H-imidazol-4-yl)-4-methoxyphenyl)cyclopropanecarboxamide]	0.0008 µM	–
COc1ccc(NC(=O)C2CC2)c(-c2c[nH]c([C@@H]3CCC4CC(c5c(-n6cnnn6)ccc(Cl)c5F)=CC(=O)N43)n2)c1 (stereo partly drawn) [Example 279, N-(2-(2-((3S)-7-(3-Chloro-2-fluoro-6-(1H-tetrazol-1-yl)phenyl)-5-oxo-1,2,3,5,8,8a-hexahydroindolizin-3-yl)-1H-imidazol-4-yl)-4-methoxyphenyl)cyclopropanecarboxamide]	0.0009 µM	–
COc1ccc(NC(=O)C2CC2)c(-c2c[nH]c([C@@H]3CC[C@@H]4CC(c5c(-n6cnnn6)ccc(Cl)c5F)=CC(=O)N43)n2)c1 [Example 257, N-[2-[2-[(3S,8aR)-7-[3-Chloro-2-fluoro-6-(tetrazol-1-yl)phenyl]-5-oxo-2,3,8,8a-tetrahydro-1H-indolizin-3-yl]-1H-imidazol-4-yl]-4-methoxy-phenyl]cyclopropanecarboxamide]	0.0005 µM	–
